Legend:
[1] = test system: H1975 (KRAS wild type human lung adenocarcinoma cell line); test: KRAS 3D-Cell Proliferation Assay, H1975 (Example 503); type: cell-based; conditions: Homo sapiens, NCI-H1975, 168 h, H1975 3D culture, 7 days, CellTiter-Glo 3D; read-out: Prolif H1975 3D ATP IC50
Method in brief: (§1)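 3D culture, ultra-low attachment wells; RPMI-1640/10% FBS/2 mM L-glutamine. Overnight settle, then compound series, 0.3% DMSO final, 7 d, 37° C, 5% CO2. Readout: CellTiter-Glo 3D luminescence. % inhibition vs DMSO (0%) and 1 μM staurosporine (100%); IC50 via 4-parameter Hill.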

[2] = test system: HPAC (homozygous mutant KRAS G12D human pancreatic cell line); test: KRAS 3D-Cell Proliferation Assay, HPAC (Example 503); type: cell-based; conditions: Homo sapiens, HPAC, 168 h, HPAC 3D culture, 7 days, CellTiter-Glo 3D; read-out: Prolif HPAC 3D ATP IC50
Method in brief: as §1

Row | SMILES | IC50 [1] | IC50 [2]
1 | Cc1c(F)c(N)cc(-c2nc3c4c(nc(OC[C@H]5[C@H](C#N)CCN5C)nc4c2F)N2C[C@H]4CC[C@H](N4)[C@H]2[C@H](C)O3)c1C(F)(F)F [Compound 161, (2R,3R)-2-((((5S,5aS,6S,9R)-2-(5-Amino-4° fluoro-3-methyl-2-(trifluoromethyl)°henyl)-1-fluoro-5-methyl-5a,6,7,8,9,10-hexahydro-5H-4-oxa-3,10a,11,13,14-pentaaza-6,9-methanonaphtho[1,8-ab]heptalen-12-yl)oxy)methyl)-1-methylpyrrolidine-3-carbonitrile] | 13000 nM | 68.9 nM
2 | Cc1nc(N)cc(-c2nc3c4c(nc(OC[C@@]56CCCN5C[C@H](F)C6)nc4c2F)N2C[C@H]4CC[C@H](N4)[C@H]2[C@H](C)O3)c1CC(F)(F)F [Compound 185, 4-((5S,5aS,6S,9R)-1-Fluoro-12-(((2R,7aS)-2-fluorotetrahydro-1H-pyrrolizin-7a(5H)-yl)methoxy)-5-methyl-5a,6,7,8,9,10-hexahydro-5H-4-oxa-3,10a,11,13,14-pentaaza-6,9-methanonaphtho[1,8-ab]heptalene-2-yl)-6-methyl-5-(2,2,2-trifluoroethyl)pyridin-2-amine] | 4930 nM | 32 nM
3 | Cc1cc(N)c(F)c(-c2nc3c4c(nc(OC[C@@H]5CC[C@H]6COCCN65)nc4c2F)N2C[C@H]4CC[C@H](N4)[C@H]2[C@H](C)O3)c1CC(F)F [Compound 231, 4-(2,2-Difluoroethyl)-2-fluoro-3-((5S,5aS,6S,9R)-1-fluoro-12-(((6S,8aS)-hexahydro-1H-pyrrolo[2,1-c][1,4]oxazin-6-yl)methoxy)-5-methyl-5a,6,7,8,9,10-hexahydro-5H-4-oxa-3,10a,11,13,14-pentaaza-6,9-methanonaphtho[1,8-ab]heptalen-2-yl)-5-methylaniline] | 13200 nM | 39.8 nM
4 | C[C@@H]1Oc2nc(-c3cc(N)c(=O)n(C)c3C(F)(F)F)c(F)c3nc(OC[C@@]45CCCN4C[C@H](F)C5)nc(c23)N2C[C@H]3CC[C@H](N3)[C@@H]12 [Compound 184, 3-Amino-5-((5S,5aS,6S,9R)-1-fluoro-12-(((2R,7aS)-2-fluorotetrahydro-1H-pyrrolizin-7a(5H)-yl)methoxy)-5-methyl-5a,6,7,8,9,10-hexahydro-5H-4-oxa-3,10a,11,13,14-pentaaza-6,9-methanonaphtho[1,8-ab]heptalene-2-yl)-1-methyl-6-(trifluoromethyl)pyridin-2(1H)-one] | 20000 nM | 147 nM
5 | Cc1c(F)c(N)cc(-c2nc3c4c(nc(OC[C@@]5(CCF)CCCN5C)nc4c2F)N2C[C@H]4CC[C@H](N4)[C@H]2[C@H](C)O3)c1C(F)(F)F (single isomer, unassigned) [127 (isomer 1)] | 6080 nM | 50.1 nM
6 | Cc1cc(N)c(F)c(-c2nc3c4c(nc(OC[C@@H]5CC[C@H]6COCCN65)nc4c2F)N2C[C@H]4CC[C@H](N4)[C@H]2[C@H](C)O3)c1C(F)(F)C(F)(F)F [Compound 100, 2-Fluoro-3-((5S,5aS,6S,9R)-1-fluoro-12-(((6S,8aS)-hexahydro-1H-pyrrolo[2,1-c][1,4]oxazin-6-yl)methoxy)-5-methyl-5a,6,7,8,9,10-hexahydro-5H-4-oxa-3,10a,11,13,14-pentaaza-6,9-methanonaphtho[1,8-ab]heptalen-2-yl)-5-methyl-4-(perfluoroethyl)aniline] | 3970 nM | 21.8 nM
7 | Cc1c(F)c(N)cc(-c2nc3c4c(nc(OCC56C[C@H](F)CN5C[C@@H](F)C6)nc4c2F)N2C[C@H]4CC[C@H](N4)[C@H]2[C@H](C)O3)c1C(F)(F)F [Compound 139, 5-((5S,5aS,6S,9R)-12-(((2S,6S)-2,6-Difluorotetrahydro-1H-pyrrolizin-7a(5H)-yl)methoxy)-1-fluoro-5-methyl-5a,6,7,8,9,10-hexahydro-5H-4-oxa-3,10a,11,13,14-pentaaza-6,9-methanonaphtho[1,8-ab]heptalen-2-yl)-2-fluoro-3-methyl-4-(trifluoromethyl)aniline] | 8570 nM | 118 nM
8 | Cc1nc(N)cc(-c2nc3c4c(nc(OCC5(CN6CCO[C@H](C)C6)CC5)nc4c2F)N2C[C@H]4CC[C@H](N4)[C@H]2[C@H](C)O3)c1C(F)(F)F [Compound 213, 4-((5S,5aS,6S,9R)-1-Fluoro-5-methyl-12-((1-(((R)-2-methylmorpholino)methyl)cyclopropyl)methoxy)-5a,6,7,8,9,10-hexahydro-5H-4-oxa-3,10a,11,13,14-pentaaza-6,9-methanonaphtho[1,8-ab]heptalen-2-yl)-6-methyl-5-(trifluoromethyl)pyridin-2-amine] | 295 nM | 1.25 nM
9 | Cc1c(F)c(N)cc(-c2nc3c4c(nc(OC[C@@H]5CC[C@H]6C[C@@H](F)CN56)nc4c2F)N2C[C@H]4CC[C@H](N4)[C@H]2[C@H](C)O3)c1C(F)(F)F (single isomer, unassigned) [152 (isomer 1)] | 787 nM | 17.4 nM
10 | Cc1c(F)c(N)cc(-c2nc3c4c(nc(OCC5(CC(F)F)CCCN5C)nc4c2F)N2CC4CCC(N4)C2C(C)O3)c1C(F)(F)F (single isomer, unassigned) [150 (isomer 2)] | 2850 nM | 23.9 nM
11 | Cc1c(F)c(N)cc(-c2nc3c4c(nc(OC[C@@H]5CCC6C=C(F)CCN65)nc4c2F)N2C[C@H]4CC[C@H](N4)[C@H]2[C@H](C)O3)c1C(F)(F)F (stereo partly drawn) [Compound 120, 2-fluoro-5-((5S,5aS,6S,9R)-1-fluoro-12-(((3S)-7-fluoro-1,2,3,5,6,8a-hexahydroindolizin-3-yl)methoxy)-5-methyl-5a,6,7,8,9,10-hexahydro-5H-4-oxa-3,10a,11,13,14-pentaaza-6,9-methanonaphtho[1,8-ab]heptalen-2-yl)-3-methyl-4-(trifluoromethyl)aniline] | 1530 nM | 10.6 nM
12 | C[C@@H]1Oc2nc(-c3cc(N)cc(C(F)(F)F)c3C(F)(F)F)c(F)c3nc(OC[C@@]45CCCN4C[C@H](F)C5)nc(c23)N2C[C@H]3CC[C@H](N3)[C@@H]12 [Compound 115, 3-((5S,5aS,6S,9R)-1-fluoro-12-(((2R,7aS)-2-fluorotetrahydro-1H-pyrrolizin-7a(5H)-yl)methoxy)-5-methyl-5a,6,7,8,9,10-hexahydro-5H-4-oxa-3,10a,11,13,14-pentaaza-6,9-methanonaphtho[1,8-ab]heptalen-2-yl)-4,5-bis(trifluoromethyl)aniline] | 2710 nM | 15.7 nM
13 | Cc1c(F)c(N)cc(-c2nc3c4c(nc(OCC5(CCF)CCCN5C)nc4c2F)N2CC4CCC(N4)C2C(C)O3)c1C(F)(F)F (single isomer, unassigned) [127 (isomer 2)] | 7970 nM | 57.5 nM
14 | Cc1cc(N)cc(-c2nc3c4c(nc(OC[C@@H]5CC[C@H]6COCCN65)nc4c2F)N2C[C@H]4CC[C@H](N4)[C@H]2[C@H](C)O3)c1CC(F)F [Compound 230, 4-(2,2-Difluoroethyl)-3-((5S,5aS,6S,9R)-1-fluoro-12-(((6S,8aS)-hexahydro-1H-pyrrolo[2,1-c][1,4]oxazin-6-yl)methoxy)-5-methyl-5a,6,7,8,9,10-hexahydro-5H-4-oxa-3,10a,11,13,14-pentaaza-6,9-methanonaphtho[1,8-ab]heptalen-2-yl)-5-methylaniline] | 5840 nM | 28.4 nM
15 | Cc1nc(N)cc(-c2nc3c4c(nc(OCC5(CN6CC7CCC(C6)O7)CC5)nc4c2F)N2C[C@H]4CC[C@H](N4)[C@H]2[C@H](C)O3)c1C(F)(F)F [Compound 207, 4-((5S,5aS,6S,9R)-12-((1-((8-oxa-3-azabicyclo[3.2.1]octan-3-yl)methyl)cyclopropyl)methoxy)-1-fluoro-5-methyl-5a,6,7,8,9,10-hexahydro-5H-4-oxa-3,10a,11,13,14-pentaaza-6,9-methanonaphtho[1,8-ab]heptalene-2-yl)-6-methyl-5-(trifluoromethyl)pyridin-2-amine] | 1420 nM | 2.36 nM
16 | Cc1c(F)c(N)cc(-c2nc3c4c(nc(OC[C@@H]5CC[C@@H]6C[C@@H](C(=O)N(C)C)CCN65)nc4c2F)N2C[C@H]4CC[C@H](N4)[C@H]2[C@H](C)O3)c1C(F)(F)F (single isomer, unassigned) [133 (isomer 1)] | 2630 nM | 26.7 nM
17 | C[C@@H]1Oc2nc(-c3cc(N)c(F)c(F)c3CC(F)F)c(F)c3cc(OC[C@@H]4CC[C@H]5COCCN54)nc(c23)N2C[C@H]3CC[C@H](N3)[C@@H]12 [Compound 158, 4-(2,2-Difluoroethyl)-2,3-difluoro-5-((5S,5aS,6S,9R)-1-fluoro-13-(((6S,8aS)-hexahydro-1H-pyrrolo[2,1-c][1,4]oxazin-6-yl)methoxy)-5-methyl-5a,6,7,8,9,10-hexahydro-5H-6,9-epiminoazepino[2′,1′:3,4][1,4]oxazepino[5,6,7-ij][2,7]naphthyridin-2-yl)aniline] | 13800 nM | 9.94 nM
18 | Cc1nc(N)cc(-c2nc3c4c(nc(OCC5(CN6CC7(C6)CC7(F)F)CC5)nc4c2F)N2C[C@H]4CC[C@H](N4)[C@H]2[C@H](C)O3)c1C(F)(F)F [Compound 277, 4-((5S,5aS,6S,9R)-12-((1-((1,1-difluoro-5-azaspiro[2.3]hexan-5-yl)methyl)cyclopropyl)methoxy)-1-fluoro-5-methyl-5a,6,7,8,9,10-hexahydro-5H-4-oxa-3,10a,11,13,14-pentaaza[6,9]methanonaphtho[1,8-ab]heptalene-2-yl)-6-methyl-5-(trifluoromethyl)pyridin-2-amine] | 974 nM | 2.09 nM

Source: US12338256B2, “Aza-tetracyclic oxazepine compounds and uses thereof” (Genentech, Inc., priority 2022, dated 2025)
